≈ marks a conversion by molar mass, not a printed value. Like-named read-outs stand apart in the source and are kept apart here.
Columns and labels:
[1] = tested on: Candida albicans ATCC 62376; assay: MIC by agar dilution method; assay type: cell-based; details: ATCC62376; Table 6c; V Candida albicans ATCC 62376; agar dilution; read-out: MIC V
Protocol: (§1) Minimal inhibitory concentrations (MICs) were determined by an agar dilution method. The test compounds were serially diluted in MeOH and 0.2 mL portions were mixed with 20 mL of molten, cooled Sabouraud dextrose agar (Difco). Yeast cell inoculum was prepared by growing cultures on Sabouraud dextrose agar for 18 hours at 32° C. and suspending the cells in phosphate buffered saline. Filamentous fungi were grown under the same conditions for 4 days to obtain spores. The inoculum level for all cultures was adjusted to 10^4 cells using a Petroff-Hauser cell counter. The glutarimide antifungal compounds cycloheximide or amphotericin B were used as a control. Inoculated test plates were incubated at 32° C. and examined after 20 hours.

Candida kefyr ATTC 288 = assay: MIC by agar dilution method; assay type: cell-based; details: Kluyveromyces marxianus
Protocol: as §1

[2] = tested on: Candida tropicalis NRRL-Y-1; assay: MIC by agar dilution method; assay type: cell-based; details: NRRLY1, agar dilution, 32° C., 20 hours, read-out: MIC
Protocol: as §1

[3] = tested on: Aspergillus niger ATCC 164; assay: MIC by agar dilution method; assay type: cell-based; details: ATCC164, Aspergillus niger ATCC 164, agar dilution, 32° C., 20 hours, read-out: MIC
Protocol: as §1

[4] = tested on: Candida albicans ATCC 102; assay: MIC by agar dilution method; assay type: cell-based; details: ATCC102, 20 h
Protocol: as §1

[5] = tested on: Candida albicans ATCC 38247; assay: MIC by agar dilution method; assay type: cell-based; details: ATCC38247; Table 6c; IV Candida albicans ATCC 38247; agar dilution; read-out: MIC IV
Protocol: as §1

[6] = tested on: Candida albicans ATCC 10231; assay: MIC by agar dilution method; assay type: cell-based; details: ATCC10231; Table 6c; I Candida albicans ATCC 10231; agar dilution; read-out: MIC I
Protocol: as §1

[7] = tested on: Cryptococcus albidus ATCC 341; assay: MIC by agar dilution method; assay type: cell-based; details: Naganishia albida, ATCC341, Table 6b, 32° C., 20 hours
Protocol: as §1

[8] = tested on: Torulopsis glabrata ATCC 155; assay: MIC by agar dilution method; assay type: cell-based; details: Nakaseomyces glabratus, ATCC155, Torulopsis glabrata ATCC 155, agar dilution, 32° C., 20 hours, read-out: MIC
Protocol: as §1

[9] = tested on: Candida albicans ATCC 382; assay: MIC by agar dilution method; assay type: cell-based; details: ATCC382, 20 h
Protocol: as §1

Candida albicans 579a = assay: MIC by agar dilution method; assay type: cell-based
Protocol: as §1

Candida albicans CCH 442 = assay: MIC by agar dilution method; assay type: cell-based; details: CCH442, agar dilution
Protocol: as §1

[10] = tested on: Candida albicans ATCC 623; assay: MIC by agar dilution method; assay type: cell-based; details: ATCC623, Candida albicans ATCC 623, agar dilution, 32° C., 20 hours, read-out: MIC
Protocol: as §1

[11] = tested on: Saccharomyces cereviseae GS1-36; assay: MIC by agar dilution method; assay type: cell-based; details: GS136, Saccharomyces cereviseae GS1-36, agar dilution, 32° C., 20 hours, read-out: MIC
Protocol: as §1

[12] = MIC by broth dilution assay; assay type: cell-based; details: Table 6d, 2 ×10^5 organisms/mL; for MIC: 144 h, no sorbitol
Protocol: Minimal inhibitory concentrations (MICs) were determined by a broth dilution assay described by Frost, D., Brandt, K., Cugier, D., and Goldman, R. in J. Antibiotics 48: 306-310 (1995) which is incorporated herein by reference. The final concentration of cells was 2 ×10^5 organisms/mL.

[13] = Minimum inhibitory concentration (MIC) stated with the glucan synthase screen; assay type: cell-based; details: organism not given
[14] = tested on: Streptococcus bovis A-5169; assay: MIC by agar dilution method; assay type: cell-based; details: Streptococcus equinus, A5169; Table 6a; Streptococcus bovis A-5169; agar dilution, 32° C., 20 hours; read-out: MIC
(1,3)-β-Glucan Synthase = target: T1, (1,3)-β-Glucan Synthase (Candida albicans, UniProt O13428); assay: In vitro inhibition of (1,3)-β-glucan synthase activity, microsomal enzyme preparation; assay type: biochemical; details: C. albicans CCH 442 microsomal enzyme
T1 construct: microsomal enzyme preparation C. albicans CCH 442; endogenous in cells; host or cells: Candida albicans CCH 442, microsomes
Protocol: The assay was conducted in a final volume of 100 μL of 2.0 mM UDP-[^14 C]-Glc (0.625 mCi/mmol), 1 mM EDTA, 8% (v/v) glycerol, 20 μM GTPgS, 0.5% Brij-35(v/v) or 0.8% BSA, 80 mM Tris/HCl, pH 7.75, and microsomal enzyme preparation C. albicans CCH 442 (100 μg of protein). A detailed description of this assay is described by Frost, D., Brandt, K. Capobioanco, and Goldman, R., Microbiology 140: 2239-2246 (1994) which is incorporated herein by reference.

glucan synthase = target: T2, glucan synthase (Candida albicans, UniProt O13428); assay: Microtiter screen for inhibitors of (1,3)-β-glucan formation in cell free extracts; assay type: biochemical; details: C. albicans microsomes, [14C]UDP-Glc, water-insoluble β-glucan product on filter
T2 construct: Microsomes isolated from mid-log phase grown yeast; endogenous in cells; host or cells: Candida albicans, mid-log phase yeast cells, microsomes
Excerpt: The fungal cell wall serves as a protective barrier and is essential for viability in a hypotonic environment. (1,3)-β-Glucan is a component of the Candida albicans cell wall, and the enzyme that biosynthesizes this polymer, glucan synthase, is not present in higher eukaryotes. (Glucan synthase is an integral plasma membrane protein that catalyzes polymerization of uridine diphosphate-glucose (UDP-Glc) into β-glucan.) Accordingly, glucan synthase represents an ideal target for the development of antifungal agents.
A microtiter screen was established to detect inhibitors of (1 ,3)-β-glucan formation in C. albicans cell free extracts. Microsomes isolated from mid-log phase grown yeast were incubated with [^14 C]UDP-Glc, effectors and test compound (fusacandin A, Example 4). The formation of the water-insoluble β-glucan product was measured on a filter after removing the substrate with water washes.

[15] = tested on: Streptococcus pyrogenes EES61; assay: MIC by agar dilution method; assay type: cell-based; details: Table 6a; Streptococcus pyrogenes EES61; agar dilution, 32° C., 20 hours; read-out: MIC
[16] = tested on: Candida albicans ATCC 997; assay: MIC by agar dilution method; assay type: cell-based; details: ATCC997; Table 6a; Candida albicans ATCC 997; agar dilution, 32° C., 20 hours; read-out: MIC
Protocol: as §1

[17] = tested on: Nocardia asteroides ATTC 9970; assay: MIC by agar dilution method; assay type: cell-based; details: ATTC9970; Table 6a; Nocardia asteroides ATTC 9970; agar dilution, 32° C., 20 hours; read-out: MIC
[18] = tested on: Staphylococcus aureus ATTC 6538p; assay: MIC by agar dilution method; assay type: cell-based; details: ATTC6538P; Table 6a; Staphylococcus aureus ATTC 6538p; agar dilution, 32° C., 20 hours; read-out: MIC
[19] = Table 6b, Candida tropicalis NRRL Y-1
[20] = Table 6c, II Candida albicans 579a, agar dilution, read-out: MIC II
[21] = Table 6b, Candida albicans CCH 442, 32° C., 20 hours, read-out: MIC
[22] = Table 6c, 3rd value column (head printed II), III Candida albicans CCH 442, read-out: MIC II

T1 sequence (O13428 1-1897): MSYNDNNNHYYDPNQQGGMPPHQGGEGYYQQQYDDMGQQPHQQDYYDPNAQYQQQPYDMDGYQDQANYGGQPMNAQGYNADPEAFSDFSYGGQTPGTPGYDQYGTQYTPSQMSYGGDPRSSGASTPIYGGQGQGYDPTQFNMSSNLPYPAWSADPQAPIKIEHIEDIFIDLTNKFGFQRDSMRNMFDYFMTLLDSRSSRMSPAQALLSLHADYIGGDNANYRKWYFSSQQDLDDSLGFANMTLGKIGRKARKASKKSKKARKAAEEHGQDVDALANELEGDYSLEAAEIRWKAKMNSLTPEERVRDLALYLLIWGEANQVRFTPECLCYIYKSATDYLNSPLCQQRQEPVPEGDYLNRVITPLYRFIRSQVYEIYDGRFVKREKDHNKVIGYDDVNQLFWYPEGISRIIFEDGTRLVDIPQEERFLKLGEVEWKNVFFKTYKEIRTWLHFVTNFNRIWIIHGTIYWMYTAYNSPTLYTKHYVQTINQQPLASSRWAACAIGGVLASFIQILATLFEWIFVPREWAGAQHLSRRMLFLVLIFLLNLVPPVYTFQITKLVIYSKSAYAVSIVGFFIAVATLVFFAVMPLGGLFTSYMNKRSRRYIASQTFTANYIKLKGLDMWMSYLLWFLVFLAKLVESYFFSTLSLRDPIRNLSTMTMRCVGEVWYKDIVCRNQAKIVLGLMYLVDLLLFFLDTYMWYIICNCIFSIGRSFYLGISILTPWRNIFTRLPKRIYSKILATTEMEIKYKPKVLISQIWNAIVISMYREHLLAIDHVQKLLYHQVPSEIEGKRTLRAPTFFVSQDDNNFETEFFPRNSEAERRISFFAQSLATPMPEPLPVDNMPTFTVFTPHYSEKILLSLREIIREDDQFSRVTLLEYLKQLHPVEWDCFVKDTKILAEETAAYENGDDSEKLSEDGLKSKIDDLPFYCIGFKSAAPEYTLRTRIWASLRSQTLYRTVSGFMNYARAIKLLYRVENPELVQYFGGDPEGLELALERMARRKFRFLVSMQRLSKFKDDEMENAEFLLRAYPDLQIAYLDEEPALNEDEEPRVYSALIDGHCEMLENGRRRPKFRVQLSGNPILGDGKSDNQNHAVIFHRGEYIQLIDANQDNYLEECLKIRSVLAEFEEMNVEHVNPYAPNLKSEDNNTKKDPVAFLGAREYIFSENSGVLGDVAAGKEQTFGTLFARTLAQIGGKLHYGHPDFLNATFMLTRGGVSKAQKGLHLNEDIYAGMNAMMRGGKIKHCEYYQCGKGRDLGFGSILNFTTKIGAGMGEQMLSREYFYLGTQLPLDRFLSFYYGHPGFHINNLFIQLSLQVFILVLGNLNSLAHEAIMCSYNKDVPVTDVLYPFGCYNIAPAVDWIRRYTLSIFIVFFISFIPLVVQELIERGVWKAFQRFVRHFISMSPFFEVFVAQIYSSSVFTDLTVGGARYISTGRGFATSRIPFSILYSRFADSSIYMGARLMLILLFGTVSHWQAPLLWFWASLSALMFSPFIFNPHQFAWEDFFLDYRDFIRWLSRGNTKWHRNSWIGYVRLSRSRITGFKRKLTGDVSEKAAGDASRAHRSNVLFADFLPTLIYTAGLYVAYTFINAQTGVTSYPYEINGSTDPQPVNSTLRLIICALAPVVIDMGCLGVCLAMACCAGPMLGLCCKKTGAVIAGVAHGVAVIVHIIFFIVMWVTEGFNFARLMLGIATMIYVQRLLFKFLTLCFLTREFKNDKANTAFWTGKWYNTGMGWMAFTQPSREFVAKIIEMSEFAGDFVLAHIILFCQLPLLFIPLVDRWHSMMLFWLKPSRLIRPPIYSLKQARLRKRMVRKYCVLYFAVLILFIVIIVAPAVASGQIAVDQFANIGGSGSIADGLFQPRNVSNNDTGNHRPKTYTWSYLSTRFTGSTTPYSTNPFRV
T2 sequence (O13428 1-1897): as above

SMILES	MIC [1]	MIC (Candida kefyr ATTC 288; ATCC288, 20 h)	MIC [2, 19]	MIC ([3]; Table 6b)	MIC [4]	MIC [5]	MIC [6]	MIC [7]	MIC ([8]; Table 6b)	MIC [9]	MIC (Candida albicans 579a; Candida albicans, 579A, 20 h)	MIC (Candida albicans 579a; [20])	MIC (Candida albicans CCH 442; [21])	MIC (Candida albicans CCH 442; [22])	MIC ([10]; Table 6b)	MIC ([11]; Table 6b)	MIC [12]	other results
CCCCC/C=C/C=C/C(O)C/C=C/C=C/C(=O)O[C@@H]1[C@@H](O)[C@H](c2c(O)cc(O)cc2CO)O[C@H](CO)[C@H]1O[C@@H]1O[C@H](CO)[C@H](O)[C@H](O)[C@H]1O[C@@H]1O[C@H](CO)[C@H](O)[C@H](O)[C@H]1O (stereo partly shown) [Example 7, fusacandin B]	50 µg/mL (≈ 57.3 µM)	100 µg/mL (≈ 115 µM)	50 µg/mL (≈ 57.3 µM)	> 100 µg/mL	50 µg/mL (≈ 57.3 µM)	> 100 µg/mL	50 µg/mL (≈ 57.3 µM)	> 100 µg/mL	100 µg/mL (≈ 115 µM)	> 100 µg/mL	50 µg/mL (≈ 57.3 µM)	25 µg/mL (≈ 28.6 µM)	50 µg/mL (≈ 57.3 µM)	25 µg/mL (≈ 28.6 µM)	100 µg/mL (≈ 115 µM)	50 µg/mL (≈ 57.3 µM)	–	–
C[C@@H]1[C@H](O)[C@@H](C)/C=C/C=C/C=C/C=C/C=C/C=C/C=C/[C@H](O[C@@H]2O[C@H](C)[C@@H](O)[C@H](N)[C@@H]2O)C[C@@H]2O[C@](O)(C[C@@H](O)C[C@@H](O)[C@H](O)CC[C@@H](O)C[C@@H](O)CC(=O)O[C@H]1C)C[C@H](O)[C@H]2C(=O)O [Amphotericin B, amphotericin B, reference compound]	–	1.56 µg/mL (≈ 1.69 µM)	1.56 µg/mL (≈ 1.69 µM)	1.56 µg/mL (≈ 1.69 µM)	1.56 µg/mL (≈ 1.69 µM)	–	–	3.12 µg/mL (≈ 3.38 µM)	1.56 µg/mL (≈ 1.69 µM)	50 µg/mL (≈ 54.1 µM)	1.56 µg/mL (≈ 1.69 µM)	–	1.56 µg/mL (≈ 1.69 µM)	–	1.56 µg/mL (≈ 1.69 µM)	1.56 µg/mL (≈ 1.69 µM)	0.24 µg/mL (≈ 0.26 µM)	–
CCCCCC=CC=CC(=O)OCC1OC(OC2C(CO)OC(c3c(O)cc(O)cc3CO)C(O)C2OC(=O)C=CC=CCC(O)C=CC=CCCCCC)C(OC2OC(CO)C(O)C(O)C2O)C(O)C1O (stereo not shown) [Example 4, fusacandin A]	1.56 µg/mL (≈ 1.52 µM)	–	–	–	–	0.78 µg/mL (≈ 0.762 µM)	1.56 µg/mL (≈ 1.52 µM)	–	–	–	–	0.78 µg/mL (≈ 0.762 µM)	–	0.78 µg/mL (≈ 0.762 µM)	–	–	0.48 µg/mL (≈ 0.469 µM)	MIC [13]: 0.5 µg/mL (≈ 0.489 µM); MIC [14]: 12.5 µg/mL (≈ 12.2 µM); IC50 ((1,3)-β-Glucan Synthase; 0.5% Brij-35, read-out: IC50 With Brij-35 (converted)): 6.84 µM; IC50 ((1,3)-β-Glucan Synthase; 0.8% BSA, read-out: IC50 With BSA (converted)): 111 µM; IC50 (glucan synthase; read-out: IC50 (converted)): 20 µM; MIC [15]: 6.25 µg/mL (≈ 6.11 µM); MIC (Candida kefyr ATTC 288; ATTC288, Table 6a, Candida kefyr ATTC 288, agar dilution, 32° C., 20 hours, read-out: MIC): 6.25 µg/mL (≈ 6.11 µM); MIC ([2]; Table 6a, Candida tropicalis NRRL-Y-1): 6.25 µg/mL (≈ 6.11 µM); MIC [16]: 12.5 µg/mL (≈ 12.2 µM); MIC ([3]; Table 6a): 6.25 µg/mL (≈ 6.11 µM); MIC ([8]; Table 6a): 3.12 µg/mL (≈ 3.05 µM); MIC (Candida albicans CCH 442; Table 6a, Candida albicans CCH 442, 32° C., 20 hours, read-out: MIC): 6.26 µg/mL (≈ 6.12 µM); MIC ([10]; Table 6a): 6.25 µg/mL (≈ 6.11 µM); MIC ([11]; Table 6a): 3.12 µg/mL (≈ 3.05 µM); MIC [17]: 12.5 µg/mL (≈ 12.2 µM); MIC [18]: 50 µg/mL (≈ 48.9 µM)
CCC(O)/C=C/C=C/C=C/C(=O)OC[C@H]1O[C@@H](O[C@H]2[C@H](OC(=O)/C=C/C=C/CC(O)/C(C)=C/C=C/CCC(C)CC)[C@@H](O)[C@@]3(OCc4cc(O)cc(O)c43)O[C@@H]2CO)[C@H](O)[C@@H](O)[C@H]1O (stereo partly shown) [Papulacandin B, papulacandin B, reference compound]	–	–	–	–	–	–	–	–	–	–	–	–	–	–	–	–	–	minimum inhibitory concentration (MIC) [13]: 1.0 µg/mL (≈ 1.11 µM); IC50 With Brij-35 ((1,3)-β-Glucan Synthase; 0.5% Brij-35): 0.8 µg/mL (≈ 0.888 µM); IC50 With BSA ((1,3)-β-Glucan Synthase; 0.8% BSA): 16.3 µg/mL (≈ 18.1 µM); IC50 (glucan synthase): 3.6 µg/mL; MIC No sorbitol [12]: 0.48 µg/mL (≈ 0.533 µM)
